Data on 27 compounds can be found in US20260297070A1, “CYCLIC [COMPOUND LEFT OUT] WRN INHIBITORS” (Nimbus Wadjet, Inc., priority 2023, published 2026).

Structures are written as SMILES.

T1 sequence (Q14191 with tags, fused parts or gaps L1074F limits assumed): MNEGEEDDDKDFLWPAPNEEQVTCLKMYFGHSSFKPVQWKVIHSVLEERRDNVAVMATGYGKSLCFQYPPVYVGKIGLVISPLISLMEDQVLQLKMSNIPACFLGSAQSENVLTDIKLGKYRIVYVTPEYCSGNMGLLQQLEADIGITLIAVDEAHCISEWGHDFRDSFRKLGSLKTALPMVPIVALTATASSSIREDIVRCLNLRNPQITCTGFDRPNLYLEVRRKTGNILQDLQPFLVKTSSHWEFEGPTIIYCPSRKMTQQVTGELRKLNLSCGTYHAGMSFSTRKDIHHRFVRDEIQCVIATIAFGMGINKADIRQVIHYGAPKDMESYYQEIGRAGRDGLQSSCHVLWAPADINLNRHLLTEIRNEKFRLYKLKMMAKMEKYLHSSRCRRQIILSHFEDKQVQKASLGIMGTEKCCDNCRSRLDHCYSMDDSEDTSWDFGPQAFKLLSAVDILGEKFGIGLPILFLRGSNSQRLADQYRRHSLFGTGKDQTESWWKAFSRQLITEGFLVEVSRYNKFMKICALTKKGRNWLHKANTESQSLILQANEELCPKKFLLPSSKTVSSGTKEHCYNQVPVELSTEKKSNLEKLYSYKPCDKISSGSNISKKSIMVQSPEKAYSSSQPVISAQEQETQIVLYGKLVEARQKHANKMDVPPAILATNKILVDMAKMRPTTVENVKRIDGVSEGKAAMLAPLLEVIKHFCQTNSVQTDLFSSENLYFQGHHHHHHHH

This assay has as its target T1, human Werner helicase (WRN-BV08, Uniprot Q14191, amino acids 517-1235 with L1074F point mutation) (Homo sapiens, UniProt Q14191, L1074F).
T1 construct: Uniprot Q14191, amino acids 517-1235 with L1074F point mutation; TEV-cleavable 8×His (C, cleaved yes); made in house; host or cells: Sf9 insect cells (baculovirus)
The assay is described as follows: WRN (BV08) ADP-Glo Assay. The assay is classed as biochemical. The note with it: 0.15 nM WRN, 5 μM ATP, 0.1 nM DNA duplex, 15 min preincubation, 60 min at 25° C., pH 7.5, 1% DMSO; read-out: ADP-Glo_hWRN_IC50. A digest of the protocol:
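ADP-Glo luminescence read-out of ATP hydrolysis. Conditions: 0.15 nM WRN, 5 μM ATP, 0.1 nM DNA duplex, 1% DMSO, 60 min at 25 °C after 15 min compound preincubation. Max/min controls were DMSO and 20 μM NSC-617145; IC50 from four-parameter fit.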
For the compound `CN(C)C(=O)C(C(=O)N(Cc1nc(C2CC2)cs1)C1C=CS(=O)(=O)C1)c1ccc(S(F)(F)(F)(F)F)cc1` (stereo not drawn) [I-107, N′-[(4-cyclopropyl-1,3-thiazol-2-yl)methyl]-N′-(1,1-dioxo-2,3-dihydro-1lambda6-thiophen-3-yl)-N,N-dimethyl-2-[4-(pentafluoro-lambda6-sulfanyl)phenyl]propanediamide], the IC50 was 500 to 5000 nM.

On to `CC(C)(O)c1cc(CN(C(=O)Cn2cc(-c3ccccc3F)cn2)C2C=CS(=O)(=O)C2)ccn1` (stereo not drawn) [I-108, N-(1,1-dioxo-2,3-dihydro-1lambda6-thiophen-3-yl)-2-[4-(2-fluorophenyl)-1H-pyrazol-1-yl]-N-{[2-(2-hydroxypropan-2-yl)pyridin-4-yl]methyl}acetamide], for which the IC50 is 500 to 5000 nM.

For `COc1cc(CN(C(=O)C2Cc3cc(-n4cccc4C)ccc3O2)C2C=CS(=O)(=O)C2)ccn1` (stereo not drawn) [I-109, N-(1,1-dioxido-2,3-dihydrothiophen-3-yl)-N-((2-methoxypyridin-4-yl)methyl)-5-(2-methyl-1H-pyrrol-1-yl)-2,3-dihydrobenzofuran-2-carboxamide], the IC50 fell in the range of 500 to 5000 nM.

As to `O=C(Cc1ccc(-c2ccc(F)cc2)cc1F)N(Cc1ccnc(OC2CC2)c1)C1C=CS(=O)(=O)C1` (stereo not drawn) [I-110, N-[(2-cyclopropoxypyridin-4-yl)methyl]-2-{3,4′-difluoro-[1,1′-biphenyl]-4-yl}-N-(1,1-dioxo-2,3-dihydro-1lambda6-thiophen-3-yl)acetamide], the IC50 was in the range of 500 to 5000 nM.

`O=C(Cc1ccc(-n2cccc2)cc1)N(Cc1nc(C2CC2)cs1)C1C=CS(=O)(=O)C1` (stereo not drawn) [I-111, N-[(4-cyclopropyl-1,3-thiazol-2-yl)methyl]-N-(1,1-dioxo-2,3-dihydro-1lambda6-thiophen-3-yl)-2-[4-(1H-pyrrol-1-yl)phenyl]acetamide]: the IC50 is 500 to 5000 nM.

Regarding `COc1nccc(CN(C(=O)Cc2ccc(-n3cccc3C)cc2F)C2C=CS(=O)(=O)C2)n1` (stereo not drawn) [I-112, N-(1,1-dioxo-2,3-dihydro-1lambda6-thiophen-3-yl)-2-[2-fluoro-4-(2-methyl-1H-pyrrol-1-yl)phenyl]-N-[(2-methoxypyrimidin-4-yl)methyl]acetamide], the IC50 lay in the range of 500 to 5000 nM.

Regarding `CCOC(C(=O)N(Cc1ccnc(OC)c1)C1C=CS(=O)(=O)C1)c1ccc(-c2ccc(F)cc2)cc1` (stereo not drawn) [I-113, N-(1,1-dioxo-2,3-dihydro-1lambda6-thiophen-3-yl)-2-ethoxy-2-{4′-fluoro-[1,1′-biphenyl]-4-yl}-N-[(2-methoxypyridin-4-yl)methyl]acetamide], the IC50 lay in the range of 500 to 5000 nM.

For `COc1cc(CN(C(=O)C2Cc3cc(C(F)(F)F)ccc3O2)[C@@H]2C=CS(=O)(=O)C2)ccn1` (stereo partly drawn) [I-114, N-[(3R)-1,1-dioxo-2,3-dihydro-1lambda6-thiophen-3-yl]-N-[(2-methoxypyridin-4-yl)methyl]-5-(trifluoromethyl)-2,3-dihydro-1-benzofuran-2-carboxamide], the IC50 is 500 to 5000 nM.

Regarding `O=C(Cc1ccc(-c2ccc(F)cc2)cc1F)N(Cc1ccncc1)C1C=CS(=O)(=O)C1` (stereo not drawn) [I-115, 2-{3,4′-difluoro-[1,1′-biphenyl]-4-yl}-N-(1,1-dioxo-2,3-dihydro-1lambda6-thiophen-3-yl)-N-[(pyridin-4-yl)methyl]acetamide], the IC50 was 500 to 5000 nM.

Consider `CC(C)(O)c1cc(CN(C(=O)Cc2ncc(-c3ccc(F)c(F)c3)cn2)C2C=CS(=O)(=O)C2)ccn1` (stereo not drawn) [I-116, 2-[5-(3,4-difluorophenyl)pyrimidin-2-yl]-N-(1,1-dioxo-2,3-dihydro-1lambda6-thiophen-3-yl)-N-{[2-(2-hydroxypropan-2-yl)pyridin-4-yl]methyl}acetamide], for which the IC50 lay within 500 to 5000 nM.

Consider `COc1cc(CN(C(=O)Cc2ccc(C(C)(F)F)cc2)C2C=CS(=O)(=O)C2)ccn1` (stereo not drawn) [I-117, 2-[4-(1,1-difluoroethyl)phenyl]-N-(1,1-dioxo-2,3-dihydro-1lambda6-thiophen-3-yl)-N-[(2-methoxypyridin-4-yl)methyl]acetamide], for which the IC50 fell in the range of 500 to 5000 nM.

On to `COCc1cc(CN(C(=O)Cc2ccc(-n3cccc3C)cc2F)C2C=CS(=O)(=O)C2)ccn1` (stereo not drawn) [I-118, N-(1,1-dioxo-2,3-dihydro-1lambda6-thiophen-3-yl)-2-[2-fluoro-4-(2-methyl-1H-pyrrol-1-yl)phenyl]-N-{[2-(methoxymethyl)pyridin-4-yl]methyl}acetamide], for which the IC50 lay in the range of 500 to 5000 nM.

Take `COc1cc(CN(C(=O)Cc2ccc(-n3cccc3C)cc2)C2C=CS(=O)(=O)C2)ccn1` (stereo not drawn) [I-119, N-(1,1-dioxo-2,3-dihydro-1lambda6-thiophen-3-yl)-N-[(2-methoxypyridin-4-yl)methyl]-2-[4-(2-methyl-1H-pyrrol-1-yl)phenyl]acetamide]: the IC50 lay in the range of 500 to 5000 nM.

For the compound `O=C(Cc1ccc(-c2cccc(F)c2)cc1F)N(Cc1ccncc1)C1C=CS(=O)(=O)C1` (stereo not drawn) [I-120, 2-{3,3′-difluoro-[1,1′-biphenyl]-4-yl}-N-(1,1-dioxo-2,3-dihydro-1lambda6-thiophen-3-yl)-N-[(pyridin-4-yl)methyl]acetamide], the IC50 was 500 to 5000 nM.

For `COc1cc(CN(C(=O)C2CNc3cc(-c4ccc(F)cc4)ccc32)C2C=CS(=O)(=O)C2)ccn1` (stereo not drawn) [I-121, N-(1,1-dioxo-2,3-dihydro-1lambda6-thiophen-3-yl)-6-(4-fluorophenyl)-N-[(2-methoxypyridin-4-yl)methyl]-2,3-dihydro-1H-indole-3-carboxamide], the IC50 is 500 to 5000 nM.

For the compound `O=C(Cc1ccc(-n2cccc2)cc1F)N(Cc1ccc(Br)cc1)C1C=CS(=O)(=O)C1` (stereo not drawn) [I-122, N-[(4-bromophenyl)methyl]-N-(1,1-dioxo-2,3-dihydro-1lambda6-thiophen-3-yl)-2-[2-fluoro-4-(1H-pyrrol-1-yl)phenyl]acetamide], the IC50 was in the range of 500 to 5000 nM.

As to `CC(C)c1ccc(CC(=O)N(Cc2ccnc(C(C)(C)O)c2)C2C=CS(=O)(=O)C2)cc1` (stereo not drawn) [I-123, N-(1,1-dioxo-2,3-dihydro-1lambda6-thiophen-3-yl)-N-{[2-(2-hydroxypropan-2-yl)pyridin-4-yl]methyl}-2-[4-(propan-2-yl)phenyl]acetamide], the IC50 is 500 to 5000 nM.

Turning to `O=C(C1CNc2cc(-c3ccc(F)cc3)ccc21)N(Cc1ccncc1)C1C=CS(=O)(=O)C1` (stereo not drawn) [I-124, N-(1,1-dioxo-2,3-dihydro-1lambda6-thiophen-3-yl)-6-(4-fluorophenyl)-N-[(pyridin-4-yl)methyl]-2,3-dihydro-1H-indole-3-carboxamide], the IC50 was in the range of 500 to 5000 nM.

On to `O=C(C(C(=O)N(Cc1ccncc1)C1C=CS(=O)(=O)C1)c1ccc(-c2ccc(F)cc2)cc1)N1CCCC1` (stereo not drawn) [I-125, N-(1,1-dioxo-2,3-dihydro-1lambda6-thiophen-3-yl)-2-{4′-fluoro-[1,1′-biphenyl]-4-yl}-3-oxo-N-[(pyridin-4-yl)methyl]-3-(pyrrolidin-1-yl)propanamide], for which the IC50 is 500 to 5000 nM.

For the compound `COc1cc(CN(C(=O)C(C)c2ccc(S(F)(F)(F)(F)F)cc2)C2C=CS(=O)(=O)C2)ccn1` (stereo not drawn) [I-126, N-(1,1-dioxo-2,3-dihydro-1lambda6-thiophen-3-yl)-N-[(2-methoxypyridin-4-yl)methyl]-2-[4-(pentafluoro-lambda6-sulfanyl)phenyl]propanamide], the IC50 fell in the range of 500 to 5000 nM.

`CC(C)(O)c1cc(CN(C(=O)Cc2ccc(C(F)(F)F)cc2F)C2C=CS(=O)(=O)C2)ccn1` (stereo not drawn) [I-128, N-(1,1-dioxo-2,3-dihydro-1lambda6-thiophen-3-yl)-2-[2-fluoro-4-(trifluoromethyl)phenyl]-N-{[2-(2-hydroxypropan-2-yl)pyridin-4-yl]methyl}acetamide]: the IC50 was 500 to 5000 nM.

On to `COc1cc(CN(C(=O)Cc2ncc(-c3ccc(F)c(F)c3)cc2F)C2C=CS(=O)(=O)C2)ccn1` (stereo not drawn) [I-129, 2-[5-(3,4-difluorophenyl)-3-fluoropyridin-2-yl]-N-(1,1-dioxo-2,3-dihydro-1lambda6-thiophen-3-yl)-N-[(2-methoxypyridin-4-yl)methyl]acetamide], for which the IC50 lay within 500 to 5000 nM.

With `CC(C)(O)c1cc(CN(C(=O)C2Cc3cc(C(F)(F)F)ccc3O2)C2C=CS(=O)(=O)C2)ccn1` (stereo not drawn) [I-131, N-(1,1-dioxo-2,3-dihydro-1lambda6-thiophen-3-yl)-N-{[2-(2-hydroxypropan-2-yl)pyridin-4-yl]methyl}-5-(trifluoromethyl)-2,3-dihydro-1-benzofuran-2-carboxamide], the IC50 lay within 500 to 5000 nM.

As to `COc1cc(CN(C(=O)C2Cc3cc(-n4cccc4C)ccc32)C2C=CS(=O)(=O)C2)ccn1` (stereo not drawn) [I-132, N-(1,1-dioxo-2,3-dihydro-1lambda6-thiophen-3-yl)-N-[(2-methoxypyridin-4-yl)methyl]-3-(2-methyl-1H-pyrrol-1-yl)bicyclo[4.2.0]octa-1,3,5-triene-7-carboxamide], the IC50 was 500 to 5000 nM.

With `COc1cc(CN(C(=O)Cn2cc(-c3ccccc3F)cn2)C2C=CS(=O)(=O)C2)ccn1` (stereo not drawn) [I-134, N-(1,1-dioxo-2,3-dihydro-1lambda6-thiophen-3-yl)-2-[4-(2-fluorophenyl)-1H-pyrazol-1-yl]-N-[(2-methoxypyridin-4-yl)methyl]acetamide], the IC50 was in the range of 500 to 5000 nM.

In the case of `CC(C)(O)c1cc(CN(C(=O)Cc2ccc(C(F)(F)F)cc2)C2C=CS(=O)(=O)C2)ccn1` (stereo not drawn) [I-135, N-(1,1-dioxo-2,3-dihydro-1lambda6-thiophen-3-yl)-N-{[2-(2-hydroxypropan-2-yl)pyridin-4-yl]methyl}-2-[4-(trifluoromethyl)phenyl]acetamide], the IC50 was 500 to 5000 nM.

Regarding `COc1cc(CN(C(=O)Cc2ccc(-c3ccc(F)cc3)cc2Cl)C2C=CS(=O)(=O)C2)ccn1` (stereo not drawn) [I-136, 2-{3-chloro-4′-fluoro-[1,1′-biphenyl]-4-yl}-N-(1,1-dioxo-2,3-dihydro-1lambda6-thiophen-3-yl)-N-[(2-methoxypyridin-4-yl)methyl]acetamide], the IC50 was in the range of 500 to 5000 nM.
